As a reminder, the inhibition is the drop in the measured response relative to a control, in per cent. What is called pIC50 is the IC50 on a negative log10 scale, so that one unit is a factor of ten.

One assay deals with PC3 cells. The assay can be described thus: PC3 growth inhibition (Cell-titer glo, 72 hours). It is filed as cell-based. The settings on record: Homo sapiens, PC-3, PC3 cells, 72 hours, Cell-titer glo, read-out: Percent Inhibition (PC3 growth inhibition); for inhibition at 1 µM: compound concentration 1 μM; for inhibition at 1.667 µM: compound concentration 1.667 μM. The method in brief:
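PC3 cells in RPMI1640 seeded overnight at 37 °C, 5% CO2, then exposed to compound diluted in AIM serum-free medium for 72 h. Viability by CellTiter-Glo luminescence vs DMSO controls; single-concentration % remaining viability (1 μM or 1.667 μM), or GI50/LD50 from curves.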

A further assay has as its target hNAMPT protein (Homo sapiens (Human), UniProt P43490). The assay can be described thus: NAMPT enzyme assay (TR-FRET/HTRF, BodiPY ligand, anti 6His-Tb). It is filed as binding. As to conditions: for pIC50: NAMPT IC50 range class, read-out: IC50; for inhibition at 1 µM: read-out: Percent Inhibition. The method in brief: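 TR-FRET binding assay in which His-tagged human NAMPT with anti-6His-Tb is displaced by compound from a BodiPY ligand, incubated 1 h at rt in the dark. Excitation was at 320 nm, with the 520/486 nm emission ratio read. IC50 was fitted from inhibition relative to DMSO controls.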

pIC50: −log10 of the molar value. Read-outs that look alike come from different tables or passages of the source. Where only a bound is given, the exact number is not on record here.

Chain of hNAMPT protein (P43490 whole entry): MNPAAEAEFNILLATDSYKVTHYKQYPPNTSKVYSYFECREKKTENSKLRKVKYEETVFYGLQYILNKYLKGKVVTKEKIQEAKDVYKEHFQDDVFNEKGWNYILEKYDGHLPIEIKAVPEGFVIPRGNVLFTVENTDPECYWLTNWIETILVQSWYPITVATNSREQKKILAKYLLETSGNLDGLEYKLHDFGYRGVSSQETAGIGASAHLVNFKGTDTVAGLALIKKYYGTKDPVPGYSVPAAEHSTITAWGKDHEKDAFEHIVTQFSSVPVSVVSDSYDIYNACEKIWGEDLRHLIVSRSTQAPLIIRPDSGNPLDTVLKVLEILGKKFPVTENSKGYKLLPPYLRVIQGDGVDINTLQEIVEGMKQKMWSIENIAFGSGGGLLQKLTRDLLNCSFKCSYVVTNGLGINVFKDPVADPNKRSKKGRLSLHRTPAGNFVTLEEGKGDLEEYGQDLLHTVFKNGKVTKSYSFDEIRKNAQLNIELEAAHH

As to `O=C(NCCCn1ccnc1)c1ccc2nc(N3CCC(n4c(=O)[nH]c5ccccc54)CC3)c(-c3ccccc3)nc2c1` [Compound I-280, N-[3-(1H-imidazol-1-yl)propyl]-2-[4-(2-oxo-2,3-dihydro-1H-benzimidazol-1-yl)piperidin-1-yl]-3-phenylquinoxaline-6-carboxamide], the figures for the inhibition at 1 µM in the assay with PC3 cells and at hNAMPT protein (compound concentration 1 μM) were -6% and 83%, respectively. For the same compound, the pIC50 on hNAMPT protein is 6.30 to 7.00.
For the compound `O=C(NCCCn1ccnc1)c1ccc2nc(-c3ccccc3)c(-c3ccccc3Cl)nc2c1` [Compound I-281, 3-(2-chlorophenyl)-N-[3-(1H-imidazol-1-yl)propyl]-2-phenylquinoxaline-6-carboxamide], the results for the inhibition at 1 µM with PC3 cells and at hNAMPT protein (compound concentration 1 μM) were 6% and 37%, respectively. At hNAMPT protein, the pIC50 is 5.70 to 6.00.
Turning to `O=C(NCc1cn2cccnc2n1)c1ccc2nc(N3CCC(O)CC3)c(-c3ccc(F)cc3)nc2c1` [Compound I-282, 3-(4-Fluorophenyl)-2-(4-hydroxypiperidin-1-yl)-N-(imidazo[1,2-a]pyrimidin-2-ylmethyl)quinoxaline-6-carboxamide], the inhibition at 1.667 µM in the assay on PC3 cells is 96%. The pIC50 at hNAMPT protein was greater than 7.00. Further, on hNAMPT protein (compound concentration 1 μM), the inhibition at 1 µM amounted to 91%.
Turning to `O=C(NCCCn1ccnc1)c1ccc2nc(-c3ccccc3)c(N3CCn4ccnc4C3)nc2c1` [Compound I-283, 3-(5,6-dihydroimidazo[1,2-a]pyrazin-7(8H)-yl)-N-[3-(1H-imidazol-1-yl)propyl]-2-phenylquinoxaline-6-carboxamide], the figures for the inhibition at 1 µM in the assay with PC3 cells and at hNAMPT protein (compound concentration 1 μM) were 100% and 12%, respectively. Moreover, the pIC50 on hNAMPT protein was 5.00 to 5.70.
Regarding `CC(C)Oc1c2c(nn1C)CCN(C(=O)c1ccc3nc(-c4ccc(F)cc4)c(-c4ccc(F)cc4)nc3c1)C2` [Compound I-284, [2,3-bis(4-fluorophenyl)quinoxalin-6-yl](3-isopropoxy-2-methyl-2,4,6,7-tetrahydro-5H-pyrazolo[4,3-c]pyridin-5-yl)methanone], the values for the inhibition at 1 µM in the assay on PC3 cells and at hNAMPT protein (compound concentration 1 μM) were 98% and 14%, respectively. Further, the pIC50 on hNAMPT protein is 5.00 to 5.70.
Take `O=C(c1ccc2nc(-c3ccc(F)cc3)c(-c3ccc(F)cc3)nc2c1)N1CCc2[nH]nc(O)c2C1` [Compound I-285, [2,3-bis(4-fluorophenyl)quinoxalin-6-yl](3-hydroxy-1,4,6,7-tetrahydro-5H-pyrazolo[4,3-c]pyridin-5-yl)methanone]: the inhibition at 1 µM stood at 97% with PC3 cells and 7% on hNAMPT protein (compound concentration 1 μM). Further, the pIC50 at hNAMPT protein is 5.00 to 5.70.
Turning to `NCc1ccc(-c2nc3cc(C(=O)NCCc4cccnc4)ccc3nc2-c2ccccc2)cc1` [Compound I-286, 3-[4-(Aminomethyl)phenyl]-2-phenyl-N-[2-(pyridin-3-yl)ethyl]quinoxaline-6-carboxamide], the inhibition at 1 µM in the assay on PC3 cells was determined as 4%. Further, on hNAMPT protein, the pIC50 is 5.00 to 5.70 and the inhibition at 1 µM came to 13%.
As to `O=C(NCCCc1ncc[nH]1)c1ccc2nc(N3CCS(=O)(=O)CC3)c(-c3ccc(F)cc3)nc2c1` [Compound I-287, 2-(1,1-dioxidothiomorpholin-4-yl)-3-(4-fluorophenyl)-N-[3-(1H-imidazol-2-yl)propyl]quinoxaline-6-carboxamide], in the assay on PC3 cells, the inhibition at 1.667 µM is 2%. At hNAMPT protein, the pIC50 was greater than 7.00. For the same compound, the inhibition at 1 µM on hNAMPT protein (compound concentration 1 μM) amounted to 98%.
The matching figures for `O=C(NCCCc1ncc[nH]1)c1ccc2nc(N3CC4(CCOCC4)C3)c(-c3ccc(F)cc3)nc2c1` [Compound I-288, 3-(4-fluorophenyl)-N-[3-(1H-imidazol-2-yl)propyl]-2-(7-oxa-2-azaspiro[3.5]non-2-yl)quinoxaline-6-carboxamide]: 2%, greater than 7.00 and greater than 99%.
For `O=C(NCCCn1ccnc1)c1ccc2nc(N3CCS(=O)(=O)CC3)c(-c3ccccc3)nc2c1` [Compound I-289, 2-(1,1-dioxidothiomorpholin-4-yl)-N-[3-(1H-imidazol-1-yl)propyl]-3-phenylquinoxaline-6-carboxamide], the figures for the inhibition at 1 µM with PC3 cells and on hNAMPT protein (compound concentration 1 μM) were -7% and 45%, respectively. Besides, the negative logarithm of the IC50 (pIC50) at hNAMPT protein is 5.70 to 6.00.
As to `CS(=O)(=O)Nc1cccc(-c2nc3ccc(C(=O)NCCCn4ccnc4)cc3nc2-c2ccccc2)c1` [Compound I-290, N-[3-(1H-imidazol-1-yl)propyl]-2-{3-[(methylsulfonyl)amino]phenyl}-3-phenylquinoxaline-6-carboxamide], the inhibition at 1 µM in the assay with PC3 cells was -8%; on hNAMPT protein (compound concentration 1 μM), 81%. In addition, at hNAMPT protein, the pIC50 was 6.30 to 7.00.
`COc1cccc(-c2nc3cc(C(=O)NCCc4cccnc4)ccc3nc2N2CCC(N3CCOCC3)CC2)c1` [Compound I-291, 3-(3-Methoxyphenyl)-2-[4-(morpholin-4-yl)piperidin-1-yl]-N-[2-(pyridin-3-yl)ethyl]quinoxaline-6-carboxamide]: the inhibition at 1.667 µM in the assay with PC3 cells was determined as 2%. For the same compound, the negative logarithm of the IC50 (pIC50) on hNAMPT protein is greater than 7.00. Moreover, the inhibition at 1 µM on hNAMPT protein (compound concentration 1 μM) stood at 98%.
For `Cn1cncc1CCNC(=O)c1ccc2nc(N3CCC(O)CC3)c(-c3ccc(F)cc3)nc2c1` [Compound I-292, 3-(4-fluorophenyl)-2-(4-hydroxypiperidin-1-yl)-N-[2-(1-methyl-1H-imidazol-5-yl)ethyl]quinoxaline-6-carboxamide], the inhibition at 1.667 µM with PC3 cells was found to be 2%. Besides, at hNAMPT protein, the pIC50 is greater than 7.00. The inhibition at 1 µM on hNAMPT protein (compound concentration 1 μM) stood at 90%.
With `Cn1cc2c(n1)CN(c1nc3cc(C(=O)NCCCn4ccnc4)ccc3nc1-c1ccccc1)CC2` [Compound I-295, N-[3-(1H-imidazol-1-yl)propyl]-3-(2-methyl-2,4,5,7-tetrahydro-6H-pyrazolo[3,4-c]pyridin-6-yl)-2-phenylquinoxaline-6-carboxamide], the inhibition at 1 µM with PC3 cells was -6%; at hNAMPT protein (compound concentration 1 μM) it was 49%. The pIC50 at hNAMPT protein was 5.70 to 6.00.
`O=C(NCCCn1ccnc1)c1ccc2nc(N3CCn4ccnc4C3)c(-c3ccccc3)nc2c1` [Compound I-296, 2-(5,6-dihydroimidazo[1,2-a]pyrazin-7(8H)-yl)-N-[3-(1H-imidazol-1-yl)propyl]-3-phenylquinoxaline-6-carboxamide]: the figures for the inhibition at 1 µM with PC3 cells and at hNAMPT protein (compound concentration 1 μM) were -7% and 67%, respectively. For the same compound, the pIC50 at hNAMPT protein is 6.00 to 6.30.
Turning to `O=C(NCCCc1cn[nH]c1)c1ccc2nc(N3CCOCC3)c(-c3ccc(F)cc3)nc2c1` [Compound I-297, 3-(4-Fluorophenyl)-2-(morpholin-4-yl)-N-[3-(1H-pyrazol-4-yl)propyl]quinoxaline-6-carboxamide], in the assay with PC3 cells, the inhibition at 1.667 µM turned out to be 2%. Moreover, the pIC50 at hNAMPT protein was 6.30 to 7.00. Also, at hNAMPT protein (compound concentration 1 μM), the inhibition at 1 µM stood at 88%.
The matching figures for `O=C(NCCCc1ncc[nH]1)c1ccc2nc(N3CCC(O)CC3)c(-c3ccc(Cl)cc3)nc2c1` [Compound I-298, 3-(4-chlorophenyl)-2-(4-hydroxypiperidin-1-yl)-N-[3-(1H-imidazol-2-yl)propyl]quinoxaline-6-carboxamide]: 2%, greater than 7.00 and greater than 99%.
As to `O=C(NCc1ccc2nccn2c1)c1ccc2nc(-c3ccc(F)cc3)c(-c3ccc(F)cc3)nc2c1` [Compound I-299, 2,3-bis(4-fluorophenyl)-N-(imidazo[1,2-a]pyridin-6-ylmethyl)quinoxaline-6-carboxamide], in the assay on PC3 cells, the inhibition at 1.667 µM came out at 2%. Moreover, on hNAMPT protein, the pIC50 is 6.30 to 7.00. In addition, the inhibition at 1 µM at hNAMPT protein (compound concentration 1 μM) was found to be 76%.

(Values after patent publication US10144742B2 (Millennium Pharmaceuticals, Inc., priority 2014, dated 2018).)
